Data set [1] relates to T98 g cells (human glioblastoma multiforme). Briefly: IC50 for 72 h treatments with fresh vanadium(V) compounds in T98 g cells (Example 7). As to conditions: 72 h treatment, each measurement reported, read-out: IC50 Value(s) (converted). In kind it is cell-based. As for the experimental part:
(§1) Cell Culture and Growth Conditions. The well-established human glioblastoma multiforme cell line (T98 g) and human foreskin fibroblast (HFF-1) cell lines were purchased from American Type Culture Collection (ATCC, cat. no. CRL-1690 and SCRC-1041). Due to their limited life span in culture, HFF-1 cells were used at passages four to six. The cells were cultured in Advanced DMEM (Thermo Fisher Scientific cat. no. 12491-015), supplemented with L-glutamine (2.0 mM), antibiotic-antimycotic mixture (100 U mL^−1 penicillin, […] streptomycin, and […] amphotericin B), and fetal calf serum (FCS; heat-inactivated; 2% vol). For proliferation and cytotoxicity experiments, cells were seeded in 96-well plates at an initial density of 1.5×10^3 viable cells per well in 100 μL medium and left to attach overnight.
(§2) Freshly prepared stock solutions of V(V) complexes (10 mM in DMSO) were used for cell assays. […] Stock solutions of the treatment complexes were diluted with fully supplemented cell culture media to the required final concentrations, and the resultant media were either added to the cells within 1 min (fresh solutions) or left in cell culture incubator (310 K, 5% CO2) for 24 h prior to the cell treatments (aged solutions).
(§3) Each treatment included six replicate wells with cells and two background wells without cells that contained the same components. After the addition of treatment complexes, the plates were incubated for 72 h at 310 K and 5% CO2, then MTT reagent [1-(4,5-dimethylthiazol-2-yl)-3,5-diphenylformazan, Sigma M5655] was added (50 μL per well of freshly prepared 2.0 mg/mL solution in complete medium), and incubation was continued for 4-6 h. After that, the medium was removed, the blue formazan crystals were dissolved in 0.10 mL per well of DMSO, and the absorbance at 600 nm was measured using a Victor V3 plate reader. Typically, the treatment complexes were applied in a series of nine two-fold dilutions, starting from (100±20) M V, plus the vehicle control. Exact V concentrations in the assays were verified by ICP-MS measurements using samples of cell culture media and used in the calculations of the IC50 values. Fitting of the experimental data and calculations of the IC50 values were performed using Origin 6.1 software (Microcal Origin, 1999). For all the cell assays, consistent results were obtained in at least two independent experiments using different passages of cells and varying stock solutions of the treatment complexes.
In cases where multiple measurements were performed, the value determined for each measurement are reported.

Data set [2] concerns Mycobacterium smegmatis (M. smeg). Briefly: Growth inhibition of M. smeg (MIC/IC50 measurement). Conditions: Mycolicibacterium smegmatis; M. smeg in 7H9 media, 24 h at 37° C., OD600; mean and SD of triplicate. Format: cell-based, Mycobacterium smegmatis mc^2 155. As for the experimental part: Cell Culture and Growth Conditions. M. smeg was cultured in Middlebrook 7H9 medium (Ref. no. 271310; Difco) supplemented with 10% OAD (oleic acid, albumin, dextrose), 0.2% (v/v) glycerol, and […], and incubated with shaking for 24 h at 37° C. M. smeg was grown to a mid-logarithmic growth phase assessed via spectrophotometry and occurred at an optical density of 0.6 at 600 nm (OD600). In some experiments where M. smeg was treated with vanadium complexes, the cell culture supernatant was collected for ^51V NMR studies.
Minimum Inhibitory Concentration (MIC) Measurements. The inhibitory activity of the tested compounds was determined by measuring the lowest concentration that caused bacterial growth inhibition of 50% (IC50). M. smeg was grown to the mid-log phase of 0.6-0.8 at OD600. The final concentrations of the compounds used in these studies were obtained using serial dilutions to a final concentration range of 2 to 0.0039 mM and placed with M. smeg in 7H9 media into a 96-well plate. Plates were incubated for 24 h at 37° C. A Bio-Rad Benchmark Reader (Bio-Rad Laboratories: Hercules, CA, USA) was used to check the cell viability at OD600 at appropriate times. IC50 was determined to be the lowest concentration of complexes that inhibited M. smeg growth by 50%.
Statistical Analysis. For each treatment, data were represented as the mean and standard deviation of the IC50 from triplicate measurements. The IC50 was calculated using GraFit 5 data analysis software (version 5.0.13). • Chemistry
Preparation of Stock Solutions for Cell Culture Experiments. A 20 mM stock solution of each respective V-complex and its free ligands was prepared in DMSO and diluted with 7H9 media to a concentration of 2.0 mM for biological studies.

The test system of data set [3] is HFF-1 (human foreskin fibroblasts). In words: Cytotoxicity, MTT assay, HFF-1 cells (Example 4). In kind it is cell-based. Conditions: 72 h treatment; mixed with medium ~1 min before treatment; read-out: IC50 HFF-1 (fresh). As for the experimental part: as §1, with “µL” for “μL”
Freshly prepared stock solutions of V(V) complexes (10 mM in DMSO) were used for cell assays. […]
Each treatment included six replicate wells with cells and two background wells without cells that contained the same components. […] After that, the medium was removed, the blue formazan crystals were dissolved in 0.10 mL per well of DMSO, and the absorbance at 600 nm was measured using a Victor V3 plate reader. […]

In data set [4] the test system is T98g cells (human glioblastoma multiforme). Briefly: Antiproliferative activity, MTT assay, T98g cells (Example 4). In kind it is cell-based. As to conditions: 72 h treatment. As for the experimental part:
as §1, with “µL” for “μL”
as §2
as §3, with “(100±20) μM” for “(100±20) M”

Another data set has as its system T98g cells. Briefly: V uptake by T98g cells (ICPMS). Format: cell-based, human. Conditions: 30 min treatment with 100 μM of freshly diluted V complexes. How it is done:
For V uptake experiments, T98 g cells were grown to ˜80% confluence in 12-well plates (three replicates per treatment). […] After that, V-containing media were removed, the cell layers were washed twice with phosphate buffered saline (PBS), detached with TrypLE solution (Thermo Fisher Scientific Cat. No. 12605028), pelleted, and washed again with PBS. Detachment and washing of cell pellets were used to remove V that was absorbed on the culture plates and on the cell surface. Cell numbers in each pellet were counted with a Countess automatic counter, typical numbers were (5±1)×10^5 cells/well, cell viability was >95% (Trypan blue staining). Cell pellets were digested with 0.20 mL of 65% HNO3 (trace pure, Merck 225711) for 3 d at 295 K, then diluted with Milli-Q water to 1.0 mL for ICPMS analysis. The analysis was performed with a Perkin-Elmer Nexion 350× spectrometer, using a standard V(IV) solution (Choice Analytical, Australia) and 193Ir peak as an internal standard. The measurements were performed in kinetic energy discrimination (KED) mode to eliminate the interference of [^35Cl^16O]^+ ions with the determination of ^51V^+. Cellular V concentrations were expressed in atoms V per cell. For all the cell assays, consistent results were obtained in at least two independent experiments, using different passages of cells and different stock solutions of the treatment compounds.

In data set [5] the test system is HFF-1 (non-cancer human fibroblasts). Briefly: Anti-proliferative activity, MTT assay, HFF-1 cells (Example 5). For orientation: Tetrazolium assays rely on reduction of a dye to a coloured formazan, in cell work by metabolically active cells.
Data set [6] concerns T98g (human glioblastoma cells). Briefly: Anti-proliferative activity, MTT assay, T98g cells (Example 5). Conditions: read-out: IC50 (T98g), condition (B). Format: cell-based.
Setting [7] is: complexes mixed with cell culture medium ~1 min (295K) before treatment, read-out: IC50 T98g (fresh).
The mark [8] stands for this setting: pre-incubated with cell culture medium 24 h at 310K, 5% CO2, read-out: IC50 T98g (aged).

This is an account of results in patent US20240124501A1, “VANADIUM COMPOUNDS AND METHODS OF MAKING AND USING THEREOF” (priority 2022, published 2024).

Values joined by “and” are separate entries in the source; they are usually repeats but may differ in a detail not shown here. Equal values may be shown once. Read-outs that look alike come from different tables or passages of the source.

As to `CCOc1cccc2c1[O][V]1(=[O])([O]c3cc(C45CC6CC(CC(C6)C4)C5)cc(C)c3[O]1)[N](CCO)CCN=C2`, the IC50 (in general, the concentration that gives 50% inhibition) in data set [1] was 14 ± 2 µM.
Consider `CCOc1cccc2c1[O][V]1(=[O])([O]c3cc(C45CC6CC(CC(C6)C4)C5)cc(C(C)(C)C)c3[O]1)[N](CCO)CCN=C2`, for which the IC50 in data set [1] was 2.1 ± 0.3 µM.
On to `O=[N+]([O-])c1ccc(O)c(O)c1` [H24NO2, 4-nitrocatechol], for which the IC50 in data set [2] was 610 ± 0.05 µM.
As for `[O]=[V]12([O]c3ccc(Cl)cc3C=NCC[N]1CCO)[O]c1cc(C34CC5CC(CC(C5)C3)C4)cc(C34CC5CC(CC(C5)C3)C4)c1[O]2`, the IC50 in data set [1] was 11 ± 1 µM.
`CCOc1cccc2c1[O][V]1(=[O])([O]c3cc(C(C)(C)C)cc(C(C)(C)C)c3[O]1)[N](CCO)CCN=C2`: in data set [1], the IC50 is 2.4 ± 0.3 µM.
Still for that read-out and setting: with `CCOc1cccc2c1[O][V]1(=[O])([O]c3cc(C45CC6CC(CC(C6)C4)C5)cc(C45CC6CC(CC(C6)C4)C5)c3[O]1)[N](CCO)CCN=C2` the figure was 3.3 ± 0.4 µM.
In the case of `CC(C)(C)c1cc2c(c(C34CC5CC(CC(C5)C3)C4)c1)[O][V]1(=[O])([O]c3ccc(Cl)cc3C=NCC[N]1CCO)[O]2`, in data set [1], the IC50 is 3.4 ± 0.2 µM.
On the same count and under the same terms, in the case of `CC(C)(C)c1cc2c(c(C(C)(C)C)c1)[O][V]1(=[O])([O]c3cc4ccc(=O)oc4cc3[O]1)[N](CCO)CCN=C2` it was 4.2 µM and 6.9 µM; in that of `CC(C)(C)c1cc2c(c(C34CC5CC(CC(C5)C3)C4)c1)[O][V]1(=[O])([O]c3ccccc3C=NCC[N]1CCO)[O]2`, 9.3 ± 2.1 µM.
`Oc1ccccc1O` [H2cat, catechol] gave an IC50 in data set [2] of 109 ± 0.05 µM.
The same measure, in the same setting: with `Oc1c(O)c(Br)c(Br)c(Br)c1Br` [H2tbc, tetrabromocatechol] the figure was 416 ± 0.19 µM; with `O=c1ccc2cc(O)c(O)cc2o1` [H2Coum, 6,7-dihydroxycoumarin], 506 ± 0.28 µM.
Still for that read-out and setting: with `COc1cccc(O)c1O` [H23OMet, 3-methoxy catechol] the figure was 262 ± 0.15 µM.
Turning to `N.N.[Cl][Pt][Cl]` [cisplatin], the figures for the IC50 in data set [3], in data set [4] (setting [7]) and in data set [4] (setting [8]) were 45 ± 4 µM, 33 ± 1 µM and over 50 µM, respectively.
For the compound `[Na+].[Na+].[Na+].[O]=[V]([O-])([O-])[O-]` [Na3VO4], the “Uptake (T98g) of V” value in the data set with T98g cells is listed as “(3.3 ± 0.8) × 10^7 atoms per cell”. The IC50 in data set [3] is 23 ± 3 µM; in data set [4] (setting [7]), ~40 µM and 26 µM; in data set [4] (setting [8]) it was 24 ± 4 µM. Besides, the “viability of HFF-1 cells compared with the vehicle control” value in data set [5] (subtoxic concentrations, not seen in T98g) is given as 120-140%.
In data set [2], `N#Cc1ccc(O)c(O)c1` [H2CN, 3,4-dihydroxybenzonitrile] yielded an IC50 of 447 ± 0.04 µM.
With `CC(C)(C)c1cccc2c1[O][V]1(=[O])([O]c3cc(C45CC6CC(CC(C6)C4)C5)cc(C45CC6CC(CC(C6)C4)C5)c3[O]1)[N](CCO)CCN=C2`, the IC50 in data set [1] is 5.3 ± 1.6 µM.
For the compound `CC(C)(C)c1cc(O)c(O)c(C(C)(C)C)c1` [H2dtb, 3,5-di-tert-butylcatechol], the 50% inhibitory concentration (IC50) in data set [6] turned out to be 15 ± 3 µM; in data set [2], 241 ± 0.07 µM; in data set [5] (Homo sapiens, HFF-1, read-out: IC50 (HFF-1), condition (B)) it was 24 ± 2 µM.
